Columns and labels:
[1] = target: T1, Voltage-gated inwardly rectifying potassium channel KCNH2 (Homo sapiens, UniProt Q12809); test: In vivo inhibitory concentration against displacement of 35[S] MK-499 binding to hERG channel expressed in HEK293 cells; format: organism-based
[2] = target: T2, Sodium channel protein type 9 subunit alpha (Homo sapiens, UniProt Q15858); test: In vivo inhibitory concentration against Na v1.7 channel expressed in HEK293 cells using Voltage/Ion Probe Reader (VIPR) assay; format: organism-based
Target sequence in this assay (Q15858 whole entry): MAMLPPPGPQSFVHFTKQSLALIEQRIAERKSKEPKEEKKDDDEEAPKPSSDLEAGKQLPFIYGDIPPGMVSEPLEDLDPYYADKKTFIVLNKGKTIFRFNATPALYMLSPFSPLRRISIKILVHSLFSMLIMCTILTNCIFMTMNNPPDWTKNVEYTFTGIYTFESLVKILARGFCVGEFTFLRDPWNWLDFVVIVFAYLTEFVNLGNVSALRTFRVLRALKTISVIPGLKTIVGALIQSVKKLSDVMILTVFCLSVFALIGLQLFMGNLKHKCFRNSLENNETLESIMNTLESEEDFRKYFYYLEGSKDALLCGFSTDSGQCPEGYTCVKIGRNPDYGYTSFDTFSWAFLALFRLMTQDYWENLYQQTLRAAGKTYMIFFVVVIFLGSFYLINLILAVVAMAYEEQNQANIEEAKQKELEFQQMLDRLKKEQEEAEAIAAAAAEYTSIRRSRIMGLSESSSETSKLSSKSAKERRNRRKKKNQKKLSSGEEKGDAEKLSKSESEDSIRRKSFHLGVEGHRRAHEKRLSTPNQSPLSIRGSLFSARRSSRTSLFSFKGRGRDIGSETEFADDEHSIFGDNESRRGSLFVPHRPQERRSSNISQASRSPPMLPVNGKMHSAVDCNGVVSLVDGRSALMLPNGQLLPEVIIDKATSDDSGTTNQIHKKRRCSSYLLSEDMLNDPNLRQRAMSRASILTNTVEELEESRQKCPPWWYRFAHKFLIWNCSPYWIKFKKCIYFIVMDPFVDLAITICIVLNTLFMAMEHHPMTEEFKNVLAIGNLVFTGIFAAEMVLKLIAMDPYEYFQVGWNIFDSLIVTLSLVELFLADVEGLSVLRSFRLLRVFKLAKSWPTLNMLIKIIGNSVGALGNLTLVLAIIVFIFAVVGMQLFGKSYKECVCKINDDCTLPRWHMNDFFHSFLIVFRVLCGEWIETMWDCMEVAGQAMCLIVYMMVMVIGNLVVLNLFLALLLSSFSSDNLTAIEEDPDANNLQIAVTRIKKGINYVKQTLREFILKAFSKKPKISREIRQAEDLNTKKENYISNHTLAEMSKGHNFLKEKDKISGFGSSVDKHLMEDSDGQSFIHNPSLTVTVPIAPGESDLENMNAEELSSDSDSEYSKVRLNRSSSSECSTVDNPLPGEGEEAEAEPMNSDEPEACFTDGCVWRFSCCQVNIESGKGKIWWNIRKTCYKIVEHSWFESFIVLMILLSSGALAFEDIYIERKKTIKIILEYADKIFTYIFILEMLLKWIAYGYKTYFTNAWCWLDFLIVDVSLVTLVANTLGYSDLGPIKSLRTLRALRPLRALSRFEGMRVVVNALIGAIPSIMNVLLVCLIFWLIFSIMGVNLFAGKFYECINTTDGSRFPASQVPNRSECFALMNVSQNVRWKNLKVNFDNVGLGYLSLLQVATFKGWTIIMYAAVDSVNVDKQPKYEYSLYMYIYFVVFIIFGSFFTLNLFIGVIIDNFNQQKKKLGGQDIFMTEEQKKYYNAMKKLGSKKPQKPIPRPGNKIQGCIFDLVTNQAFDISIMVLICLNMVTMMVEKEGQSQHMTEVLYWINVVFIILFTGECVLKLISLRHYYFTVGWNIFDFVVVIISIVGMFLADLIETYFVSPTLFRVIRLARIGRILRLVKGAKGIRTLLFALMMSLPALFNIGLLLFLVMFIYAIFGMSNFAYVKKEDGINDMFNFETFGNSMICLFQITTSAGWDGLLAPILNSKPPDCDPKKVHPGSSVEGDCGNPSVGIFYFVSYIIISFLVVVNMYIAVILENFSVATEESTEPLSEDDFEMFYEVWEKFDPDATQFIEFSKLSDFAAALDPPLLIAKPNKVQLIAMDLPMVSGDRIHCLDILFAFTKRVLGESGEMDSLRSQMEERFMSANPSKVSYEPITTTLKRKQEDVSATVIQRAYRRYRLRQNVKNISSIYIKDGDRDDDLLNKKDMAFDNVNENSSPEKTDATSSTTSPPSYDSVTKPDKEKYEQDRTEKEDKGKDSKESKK

[3] = target: T2, Sodium channel protein type 9 subunit alpha; test: In vitro inhibitory concentration against Na v1.7 channel electrophysiology in inactivated state expressed in HEK293 cells using Voltage/Ion Probe Reader (VIPR) assay; format: cell-based
Target sequence in this assay (Q15858 whole entry): as above

[4] = target: T2, Sodium channel protein type 9 subunit alpha; test: In vitro inhibitory concentration against Na v1.7 channel expressed in HEK293 cells using Voltage/Ion Probe Reader (VIPR) assay; format: cell-based
Target sequence in this assay (Q15858 whole entry): as above

hERG (KCNH2) = hERG (KCNH2) (Homo sapiens, UniProt Q12809); test: Percent inhibition against displacement of 35[S] MK-499 binding to hERG channel expressed in HEK293 cells at a concentration of 10 uM; format: cell-based; conditions: HEK293 cells that express hERG, probe [35S]MK-499
Rattus norvegicus = test: Percent formalin paw response in rat at (10-40 min, 3 mg/kg, iv); format: functional
[5] = Bioavailability in rat; format: ADME, organism-based; conditions: in vivo
[6] = Half-life in rat was determined; format: ADME; conditions: in vivo
[7] = Clearance rate in rat was determined; format: ADME, organism-based; conditions: plasma, read-out: Clp
[8] = target: T2, Sodium channel protein type 9 subunit alpha; conditions: HEK293
Target sequence in this assay (Q15858 whole entry, looked up): as the sequence (Q15858 whole entry) above

[9] = target: T1, Voltage-gated inwardly rectifying potassium channel KCNH2
Description: In vitro inhibitory concentration against displacement of 35[S] MK-499 binding to hERG channel expressed in HEK293 cells

[10] = target: T2, Sodium channel protein type 9 subunit alpha; test: In vitro inhibitory concentration against Na v1.7 channel electrophysiology in resting state expressed in HEK293 cells using Voltage/Ion Probe Reader (VIPR) assay; format: functional, cell-based
Target sequence in this assay (Q15858 whole entry, looked up): as the sequence (Q15858 whole entry) above

T1 sequence (Q12809 whole entry): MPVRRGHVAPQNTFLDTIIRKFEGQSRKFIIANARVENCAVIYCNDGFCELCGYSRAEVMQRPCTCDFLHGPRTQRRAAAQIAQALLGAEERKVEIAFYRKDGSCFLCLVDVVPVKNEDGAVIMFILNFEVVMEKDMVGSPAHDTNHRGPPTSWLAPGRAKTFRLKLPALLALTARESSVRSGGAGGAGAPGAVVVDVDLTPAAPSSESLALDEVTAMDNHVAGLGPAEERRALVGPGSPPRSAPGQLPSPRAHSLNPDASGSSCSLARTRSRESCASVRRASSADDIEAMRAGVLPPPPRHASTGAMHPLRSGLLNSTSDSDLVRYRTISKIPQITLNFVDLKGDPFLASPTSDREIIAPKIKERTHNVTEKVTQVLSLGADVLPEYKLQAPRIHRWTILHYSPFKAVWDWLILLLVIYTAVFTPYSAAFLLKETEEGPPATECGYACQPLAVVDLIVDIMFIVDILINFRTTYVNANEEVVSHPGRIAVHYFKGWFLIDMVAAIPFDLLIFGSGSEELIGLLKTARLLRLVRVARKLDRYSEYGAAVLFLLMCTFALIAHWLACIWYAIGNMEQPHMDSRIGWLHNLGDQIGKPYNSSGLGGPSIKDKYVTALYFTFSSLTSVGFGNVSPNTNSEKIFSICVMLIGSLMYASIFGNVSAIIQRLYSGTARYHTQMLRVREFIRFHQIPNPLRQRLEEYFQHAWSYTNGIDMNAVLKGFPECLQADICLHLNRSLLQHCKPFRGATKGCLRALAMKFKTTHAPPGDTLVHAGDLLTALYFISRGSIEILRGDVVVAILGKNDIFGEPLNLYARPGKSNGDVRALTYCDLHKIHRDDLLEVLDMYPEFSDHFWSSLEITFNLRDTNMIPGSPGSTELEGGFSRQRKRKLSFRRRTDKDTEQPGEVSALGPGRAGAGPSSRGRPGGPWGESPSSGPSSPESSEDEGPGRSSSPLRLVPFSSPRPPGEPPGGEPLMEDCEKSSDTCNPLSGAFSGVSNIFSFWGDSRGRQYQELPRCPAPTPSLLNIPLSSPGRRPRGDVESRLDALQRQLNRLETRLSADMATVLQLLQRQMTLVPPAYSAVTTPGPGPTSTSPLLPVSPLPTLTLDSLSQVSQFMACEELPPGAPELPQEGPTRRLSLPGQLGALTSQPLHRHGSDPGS
hERG (KCNH2), sequence (Q12809 whole entry): as above

| Structure (SMILES) | IC50 [4] [µM] | inhibition at 10 µM (hERG (KCNH2)) [%] | also measured |
| --- | --- | --- | --- |
| O=C(c1ccccc1OCc1csc(-c2ccc(Cl)cc2)n1)N1CCCC1 | 1 | 63 | IC50 [1]: 9.8 µM; IC50 [2]: 1 µM; Ki [3]: 0.16 µM; Activity (Rattus norvegicus): 65%; bioavailability [5]: 17%; half-life [6]: 26.4 min; clearance [7]: 627 mL/min/kg; KR [8]: 6.7 µM |
| CC(C)(C)Oc1cccc(C(=O)N2CCCC2)c1OCc1csc(-c2ccc(Cl)cc2)n1 | 22 |  |  |
| COc1cccc(C(=O)N2CCCC2)c1OC(C)c1ccccc1 (stereo not given) | > 30 |  |  |
| O=C(c1ccccc1OCc1csc(-c2ccc(Cl)cc2)n1)N1CCCCC1 | 7.4 | 89 |  |
| COc1cccc(C(=O)N2CCCC2)c1OCc1ccc(-c2ccccc2)cc1 | 4 |  |  |
| CCOc1cccc(C(=O)N2CCCC2)c1OCc1csc(-c2ccc(Cl)cc2)n1 | 6.6 |  |  |
| COc1cccc(CN2CCCCCCC2)c1OCc1csc(-c2ccc(Cl)cc2)n1 | 3.8 |  |  |
| O=C(c1cccc(O)c1OCc1csc(-c2ccc(Cl)cc2)n1)N1CCCC1 | > 30 |  |  |
| COc1cccc(C(=O)N2CCCC2)c1OCc1ccc(C(C)(C)C)cc1 | 90 |  |  |
| COc1cccc(CN2CCCCCCC2)c1OCc1csc(-c2ccccc2)n1 | 4 |  | IC50 [9]: 0.18 µM |
| O=C(c1ccccc1OCc1csc(-c2ccc(Cl)cc2)n1)N1CCCCCC1 | 40 | 90 |  |
| O=C(c1cccc(Cl)c1OCc1csc(-c2ccc(Cl)cc2)n1)N1CCCC1 | 0.73 |  |  |
| COc1cccc(C(=O)N2CCCCCCC2)c1OCc1csc(-c2ccc(Cl)cc2)n1 | 19.4 | 88 |  |
| COc1cccc(C(=O)N2CCCCC2)c1OCc1csc(-c2ccc(Cl)cc2)n1 | 3.7 | 63 |  |
| COc1cccc(C(=O)N2CCCC2)c1OCc1csc(-c2ccc(Cl)cc2)n1 | 1.3 | 50 | Ki [3]: 0.14 µM; IC50 ([4]; hek293): 1.3 µM; KR [10]: 10 µM; Activity (Rattus norvegicus): 68%; bioavailability [5]: 9.4%; half-life [6]: 28.8 min; clearance [7]: 101 mL/min/kg; IC50 [9]: 7.7 µM |
| CC(C)Oc1cccc(C(=O)N2CCCC2)c1OCc1csc(-c2ccc(Cl)cc2)n1 | 7.5 |  |  |
| COc1cccc(C(=O)N2CCCC2)c1OCCc1ccccc1 | > 30 |  |  |
| COc1cccc(C(=O)N2CCCC2)c1OC(C)c1csc(-c2ccc(Cl)cc2)n1 (stereo not given) | 2.2 |  |  |
| COc1cccc(C(=O)N2CCCC2)c1OCc1ccc(-c2cccs2)s1 | 0.55 |  |  |
| COc1cccc(C(=O)N2CCCCCC2)c1OCc1csc(-c2ccc(Cl)cc2)n1 | 6.5 | 85 |  |
| COc1cccc(C(=O)N2CCCC2)c1OCc1nc(-c2ccc(Cl)cc2)no1 | 0.86 |  |  |
| Clc1ccc(-c2nc(COc3ccccc3CN3CCCCCCC3)cs2)cc1 | 2.9 |  |  |
| COc1cccc(C(=O)N2CCCC2)c1OCCCc1ccccc1 | 21 |  |  |
| Cc1cccc(C(=O)N2CCCC2)c1OCc1csc(-c2ccc(Cl)cc2)n1 | 0.55 |  |  |
| O=C(c1ccccc1OCc1csc(-c2ccc(Cl)cc2)n1)N1CCCCCCC1 | 29 | 90 |  |

— ChEMBL document CHEMBL1140272, “Discovery of potent and use-dependent sodium channel blockers for treatment of chronic pain” (Bioorg Med Chem Lett, 2005)
